# Reference: publication PMC10495264 (Nature Cell Biology, 2023)
# Values joined by “and” are separate entries in the source; they are usually repeats but may differ in a detail not shown here. Identical values can stand only once.
# What was measured:
# mTORC1 [1] = experiment: mTORC1 activity in HEK293T cells (WT, AMPKα1/2 KO, DEPDC5 and RagA/B triple KO), p-S6K^T389/S6K immunoblot; assay type: cell-based, human
# Protocol: Source numerical data and unprocessed blots are provided. Source data
# (§1) For standard SDS–PAGE and immunoblotting experiments, cells from a well of a 12-well plate were lysed in 250 μl of ice-cold Triton lysis buffer (50 mM Tris pH 7.5, 1% Triton X-100, 150 mM NaCl, 50 mM NaF, 2 mM Na-vanadate and 0.011 g ml^−1 β-glycerophosphate) supplemented with 1×PhosSTOP phosphatase inhibitors (cat. no. 4906837001, Roche) and 1×cOmplete protease inhibitors (cat. no. 11836153001, Roche) for 10 min on ice. The samples were clarified by centrifugation (20,000g, 15 min, 4 °C) and the supernatants were boiled in 1×SDS sample buffer (5×SDS sample buffer: 350 mM Tris–HCl pH 6.8, 30% glycerol, 600 mM DTT, 12.8% SDS and 0.12% bromophenol blue). The band intensities were quantified using the ImageJ software.
# Data in graphs are shown as the mean ± s.e.m. *P < 0.05, **P < 0.005, ***P < 0.0005. Source numerical data and unprocessed blots are provided. Source data
# AMPK = AMPK and ACC1 phosphorylation immunoblot; assay type: cell-based, human; settings: relative to DMSO
# Protocol: as §1
# (§2) Data in graphs are shown as the mean ± s.e.m. *P < 0.05, **P < 0.005. Source numerical data and unprocessed blots are provided. Source data
# mTORC2 = mTORC2 activity in HEK293FT cells, p-AKT^S473/AKT immunoblot; assay type: cell-based, human
# Protocol: Phosphorylation of Ypk1 was used as the TORC2 readout. Phosphorylation of Snf1 was used as the AMPK activation readout. Total Snf1 was detected with an antibody to a histidine (His) stretch in Snf1. […] Source numerical data and unprocessed blots are provided. Source data
# (§3) Amino-acid-starvation experiments were carried out as described before[42],[43]. […] For the lipid depletion experiments, cells were cultured in medium containing 10% charcoal-stripped FBS (A3382101, Thermo Fisher Scientific), instead of full FBS, for 24 h before treatments with FASN inhibitors were performed. For FA supplementation, each FA was first conjugated to 10% FA-free BSA (fraction V; cat. no. 10735086001, Roche) for 1 h at 50 °C in a 50:50 volumetric ratio. The BSA-conjugated C16:0, C16:1, C18:1 and C18:2 FAs (100 μM) were then added to the media both 16 h previous to and at the start of the treatment with FASN inhibitors.
# as §1
# mTORC1 [2] = experiment: mTORC1 activity in mouse embryonic fibroblasts (MEFs), p-S6K^T389/S6K immunoblot; assay type: cell-based
# [3] = system: mTOR lysosomal localization; experiment: Co-localization of mTOR with LAMP2, confocal microscopy; assay type: cell-based, human
# mTORC1 [4] = experiment: mTORC1 activity in HEK293FT cells (WT and knockout lines), phosphorylation of S6K, 4E-BP1, Grb10, TFEB by immunoblot; assay type: cell-based, human; settings: for p-S6K(T389)/S6K: Replicates 1-3, DMSO = 1 (ED Fig. 8h)
# Protocol: Data represent the median fluorescence intensity of OPP Alexa Fluor 488; n = 6 biological replicates from two independent experiments. b,c,e,g,i,k,l, Data are the mean ± s.e.m. *P < 0.05, **P < 0.005, ***P < 0.0005. […] Source numerical data and unprocessed blots are provided. Source data
# as §3, §1
# mTORC1 [5] = experiment: mTORC1 activity in U2OS cells, immunoblot; assay type: cell-based, human; settings: Fasnall 25 μM 30 min; cerulenin 50 μM 2 or 4 h
# ERK1/2 = ERK1/2 phosphorylation immunoblot; assay type: cell-based, human; settings: ED Fig. 5k; relative to DMSO
# Protocol: as §1, §2
# [6] = Fasnall 25 μM 30 min, cerulenin 50 μM 4 h
smiles,measurement,setting,value
Cc1sc2ncnc(NC3CCN(Cc4ccccc4)C3)c2c1C (stereo not shown) [Fasnall],"p-S6K(T389)/S6K, Mean","mTORC1 [1]; ED Fig. 7b, AMPKa1/2 KO, 30', relative to AMPKa1/2 KO DMSO",0.6838
same,"p-S6K(T389)/S6K, Mean","mTORC1 [1]; ED Fig. 7b, AMPKa1/2 KO, 60', relative to AMPKa1/2 KO DMSO",0.7858
same,"p-S6K(T389)/S6K, Mean","mTORC1 [1]; ED Fig. 7b, WT, 30', relative to WT DMSO",0.4433
same,"p-S6K(T389)/S6K, Mean","mTORC1 [1]; ED Fig. 7b, WT, 60', relative to WT DMSO",0.4902
same,"p-S6K(T389)/S6K, Mean","mTORC1 [1]; ED Fig. 7g, DEPDC5+RagA/B KO, 30', relative to DEPDC5+RagA/B KO DMSO",0.2954
same,"p-S6K(T389)/S6K, Mean","mTORC1 [1]; ED Fig. 7g, DEPDC5+RagA/B KO, 60', relative to DEPDC5+RagA/B KO DMSO",0.2391
same,"p-S6K(T389)/S6K, Mean","mTORC1 [1]; ED Fig. 7g, WT, 30', relative to WT DMSO",0.4545
same,"p-S6K(T389)/S6K, Mean","mTORC1 [1]; ED Fig. 7g, WT, 60', relative to WT DMSO",0.4895
same,"p-AMPK(T172)/AMPK, Mean",AMPK; ED Fig. 5b,4.063
same,"p-ACC1(S79)/ACC1, Mean",AMPK; ED Fig. 5c,2.603
same,"p-AKT(S473)/AKT, Mean","mTORC2; 25 μM Fasnall 30 min, DMSO = 1, n = 4, Fig. 3b",1.017
same,phosphorylation of Akt (mTORC2 substrate),mTORC2; [6],did not significantly alter
same,"p-S6K(T389)/S6K, Mean","mTORC1 [2]; ED Fig. 4b, relative to DMSO",0.4247
same,mTORC1 activity in MEFs,"mTORC1 [2]; Fasnall 25 μM 30 min, cerulenin 50 μM 2 or 4 h",downregulates
same,mTOR/LAMP2 colocalization (Manders' coefficient),"[3]; Fasnall 30', Replicate 2, individual cells (ED Fig. 8b)",0.475 and 0.399 and 0.259 and 0.343 and 0.372 and 0.439 and 0.359 and 0.413 and 0.403 and 0.14 and 0.1 and 0.291 and 0.207 and 0.085 and 0.364 and 0.524 and 0.395 and 0.22 and 0.281 and 0.339 and 0.627 and 0.352 and 0.483 and 0.276 and 0.195 and 0.511 and 0.191
same,mTOR/LAMP2 colocalization (Manders' coefficient),"[3]; Fasnall 30', Replicate 4, individual cells (ED Fig. 8b)",0.446 and 0.648 and 0.366 and 0.481 and 0.313 and 0.232 and 0.1 and 0.151 and 0.321 and 0.261 and 0.549 and 0.486 and 0.59 and 0.448 and 0.288 and 0.329 and 0.377 and 0.426 and 0.197 and 0.422 and 0.449 and 0.465 and 0.297 and 0.542 and 0.319 and 0.458 and 0.212 and 0.351 and 0.306
same,"mTOR/LAMP2 colocalization (Manders' coefficient), Mean","[3]; Fasnall 30', mean of pooled individual cells (ED Fig. 8b), DMSO mean 0.568258",0.3868
same,mTOR/LAMP2 colocalization (Manders' coefficient),"[3]; Fasnall 60', Replicate 2, individual cells (ED Fig. 8b)",0.202 and 0.487 and 0.43 and 0.287 and 0.399 and 0.342 and 0.295 and 0.326 and 0.268 and 0.605 and 0.328 and 0.333 and 0.315 and 0.375 and 0.636 and 0.498 and 0.603 and 0.513 and 0.443
same,mTOR/LAMP2 colocalization (Manders' coefficient),"[3]; Fasnall 60', Replicate 4, individual cells (ED Fig. 8b)",0.425 and 0.202 and 0.399 and 0.49 and 0.499 and 0.282 and 0.303 and 0.344 and 0.361 and 0.405 and 0.518 and 0.461 and 0.434 and 0.504 and 0.271 and 0.298 and 0.295 and 0.41 and 0.416 and 0.567 and 0.365 and 0.689 and 0.431 and 0.398 and 0.488
same,"mTOR/LAMP2 colocalization (Manders' coefficient), Mean","[3]; Fasnall 60', mean of pooled individual cells (ED Fig. 8b), DMSO mean 0.568258",0.4158
same,mTOR localization at lysosomes (co-localization with LAMP2),"[3]; HEK293FT, 25 μM Fasnall or 50 μM cerulenin",significant dissociation
same,"mTOR/LAMP2 colocalization (Manders' coefficient), Mean","[3]; Luc-expressing cells, Fasnall 30' (ED Fig. 8j), Luc DMSO mean 0.429851",0.3242
same,"mTOR/LAMP2 colocalization (Manders' coefficient), Mean","[3]; RagA(QL)/C(SN)-expressing cells, Fasnall 30' (ED Fig. 8j), DMSO mean 0.528308",0.4688
same,"p-Grb10(S476)/Grb10, Mean","mTORC1 [4]; ED Fig. 3b, relative to DMSO",0.4881
same,"p-TFEB(S211)/TFEB, Mean","mTORC1 [4]; ED Fig. 3c, relative to DMSO",0.3867
same,"p-S6K(T389)/S6K, Mean","mTORC1 [4]; ED Fig. 4n, relative to DMSO",0.2327
same,mTORC1 activity towards Grb10 and TFEB (cerulenin: also 4E-BP1),mTORC1 [4]; [6],downregulates
same,"mTORC1 activity (phosphorylation of S6K, 4E-BP1, Grb10 and TFEB)","mTORC1 [4]; HEK293FT cells, Fasnall, cerulenin or siFASN",suppressed
same,"p-S6K(T389)/S6K, Mean","mTORC1 [4]; HEK293FT expressing FLAG-ACC1 S79A, Fasnall 25 μM, 30 min, respective DMSO = 1, Fig. 4b",0.3193
same,"p-S6K(T389)/S6K, Mean","mTORC1 [4]; HEK293FT expressing FLAG-ACC1 WT, Fasnall 25 μM, 30 min, respective DMSO = 1, Fig. 4b",0.6407
same,"p-S6K(T389)/S6K, Mean","mTORC1 [4]; HEK293FT expressing FLAG-Luc, Fasnall 25 μM, 30 min, respective DMSO = 1, Fig. 4b",0.6832
same,"p-S6K(T389)/S6K, Mean","mTORC1 [4]; HEK293FT, 25 μM Fasnall 30', DMSO = 1, n = 6, Fig. 2g",0.526
same,"p-S6K(T389)/S6K, Mean","mTORC1 [4]; HEK293FT, 25 μM Fasnall 60', DMSO = 1, n = 6, Fig. 2g",0.5445
same,"p-S6K(T389)/S6K, Mean","mTORC1 [4]; Luc-expressing cells, Fasnall 30', DMSO = 1 (ED Fig. 8h)",0.4328
same,p-S6K(T389)/S6K,"mTORC1 [4]; Luc-expressing cells, Fasnall 30'",0.4633 and 0.548 and 0.2872
same,"p-S6K(T389)/S6K, Mean","mTORC1 [4]; Luc-expressing cells, Fasnall 60', DMSO = 1 (ED Fig. 8h)",0.3861
same,p-S6K(T389)/S6K,"mTORC1 [4]; Luc-expressing cells, Fasnall 60'",0.4934 and 0.1817 and 0.4832
same,"p-S6K(T389)/S6K, Mean","mTORC1 [4]; RagA(QL)/C(SN)-expressing cells, Fasnall 30', DMSO = 1 (ED Fig. 8h)",0.4794
same,p-S6K(T389)/S6K,"mTORC1 [4]; RagA(QL)/C(SN)-expressing cells, Fasnall 30'",0.6415 and 0.4768 and 0.3198
same,"p-S6K(T389)/S6K, Mean","mTORC1 [4]; RagA(QL)/C(SN)-expressing cells, Fasnall 60', DMSO = 1 (ED Fig. 8h)",0.4741
same,p-S6K(T389)/S6K,"mTORC1 [4]; RagA(QL)/C(SN)-expressing cells, Fasnall 60'",0.6662 and 0.3714 and 0.3847
same,"p-S6K(T389)/S6K, Mean","mTORC1 [4]; RagA/B KO HEK293FT, 25 μM Fasnall 30', respective DMSO = 1, n = 4, Fig. 5i",0.306
same,"p-S6K(T389)/S6K, Mean","mTORC1 [4]; RagA/B KO HEK293FT, 25 μM Fasnall 60', respective DMSO = 1, n = 4, Fig. 5i",0.3694
same,"p-S6K(T389)/S6K, Mean","mTORC1 [4]; TSC1 KO HEK293FT, 25 μM Fasnall 30 min, respective DMSO = 1, n = 6, Fig. 5n",0.4771
same,"p-S6K(T389)/S6K, Mean","mTORC1 [4]; WT HEK293FT, 25 μM Fasnall 30', respective DMSO = 1, n = 4, Fig. 5i",0.3695
same,"p-S6K(T389)/S6K, Mean","mTORC1 [4]; WT HEK293FT, 25 μM Fasnall 60', respective DMSO = 1, n = 4, Fig. 5i",0.3619
same,"p-S6K(T389)/S6K, Mean","mTORC1 [4]; WT HEK293FT, 25 μM Fasnall 30 min, respective DMSO = 1, n = 6, Fig. 5n",0.3275
same,mTORC1 activity in U2OS,mTORC1 [5],downregulates
same,"p-ERK(T202/Y204)/ERK, Mean",ERK1/2,0.525
